From patent US5254563A, “Beta-carbolines, process for their production and their use in pharmaceutical agents” (Schering Aktiengesellschaft, priority 1989, dated 1993) come the findings set out here.

One may read the fraction remaining as what is left of the initial amount, in per cent.

In one series the test system is benzodiazepine receptors. Description: Inhibition of the H^3-BD binding in vivo (displacement of radioactively-labeled flunitrazepam). The following applies: mice, i.p.; 3H-flunitrazepam i.v. after 15 minutes, forebrains removed after another 20 minutes; dose reducing specific binding to 50% of control.
Series [1] in a line: Metabolic stability in human liver homogenate. It counts as in vitro ADME. The conditions noted are these: 2 hours at 37° C., HPLC/fluorimetry, read-out: Metabolic Stability (substance remaining). As to the method: The metabolic stability is determined by a homogenate of hepatic tissue in physiological common salt solution being incubated with the test substance for 0 or 2 hours at 37° C. Then, the incubation batch is extracted and the content of test substance in the extract is determined by HPLC/fluorimetry. The substance remaining after 2 hours in comparison with 0 hours is expressed in percent stability.

On to `COCc1c(C(=O)c2ccccc2)ncc2[nH]c3ccc(OCc4ccccc4)cc3c12` [A, 6-Benzyloxy-4-methoxymethyl-3-benzoyl-beta-carboline], for which, in the series on benzodiazepine receptors, the “Inhibition of the H^3 -BD binding In vivo ED50” value came to 5.0 mg/kg. The fraction remaining at 2 h in series [1] was 72%.

As to `COCc1c(C(=O)Oc2ccccc2)ncc2[nH]c3ccc(OCc4ccccc4)cc3c12` [B, 6benzyloxy-4-methoxymethyl-beta-carboline-3-carboxylic acid phenyl ester, reference compound], the “Inhibition of the H^3 -BD binding In vivo ED50” value in the series on benzodiazepine receptors is “greater than 90 mg/kg”.
